One data set has as its system L540cy xenograft. Briefly: L540cy Hodgkin's lymphoma xenograft model. Format: in vivo, SCID mice. The conditions noted are these: cAC10 ADC (8 drugs per antibody) from the named Drug Linker compound; for tumor growth delay: single 1 mg/kg dose ip on day 8, tumors ~100 mm^3; for tolerability (weight loss, outward signs of toxicity): single 1 mg/kg dose ip, SCID mice. On the procedure: In vivo xenograft models. All experiments were conducted in concordance with the Animal Care and Use Committee in a facility fully accredited by the Association for Assessment and Accreditation of Laboratory Animal Care. Efficacy experiments were conducted in the L540cy Hodgkin's lymphoma model. Tumor cells, as a cell suspension, were implanted sub-cutaneous in immune-compromised SCID mice. Upon tumor engraftment, mice were randomized to study groups (5 mice per group) when the average tumor volume reached about 100 mm^3. The ADC or controls were dosed once via intraperitoneal injection. Tumor volume as a function of time was determined using the formula (L×W^2)/2. Animals were euthanized when tumor volumes reached 750 mm^3. Mice showing durable regressions were terminated after 10-12 weeks post implant.
[…] chimeric antibody cAC10 were prepared from Drug Linker compounds 5 (MDPr-GlucQ-FK866), 12 (MDPr-GlucQ-6050) and 26 (MDPr-GlucQ-6553) to provide ADCs carrying 8 drugs per antibody. Animals were implanted with tumor cells on day 0. Tumors reached ˜100 mm^3 on day 8, and were then treated with a single 1 mg/kg dose (ip) of ADCs.

A further data set deals with L540cy. The data set is described as follows: CellTiter-Glo cytotoxicity assay, L540cy. Format: cell-based. The note with it: L540cy (Hodgkin's lymphoma), 96 h. On the procedure:
(§1) In vitro cytotoxicity assays: Cells cultured in log-phase growth were seeded for 24 h in 96-well plates containing 150 μL RPMI 1640 supplemented with 20% FBS. Serial dilutions of free drugs or antibody-drug conjugates in cell culture media were prepared at 4× working concentrations; 50 μL of each dilution was added to the 96-well plates. Following addition of ADC, cells were incubated with test articles for 4 d at 37° C. After 96 h, growth inhibition was assessed by CellTiter-Glo™ (Promega, Madison, WI) and luminescence was measured on a plate reader. The IC50 value is defined here as the concentration that results in a 50% reduction in cell growth relative to untreated controls.
(§2) Example 89. Binding and cytoxicity of NAMPTi compounds.
(§3) Karpas 299 (non-Hodgkin's lymphoma), L540cy (Hodgkin's lymphoma), Ramos (Burkitt's lymphoma), HepG2 (hepatocellular carcinoma), Hep3B (hepatocellular carcinoma). NAMPTi compounds of Table 1 have the following structures: […]

A further data set concerns HepG2. Briefly: CellTiter-Glo cytotoxicity assay, HepG2. The note with it: HepG2 (hepatocellular carcinoma), 96 h. It is filed as cell-based. Here is the method: as §1, §2, §3
Another data set relates to Ramos. Briefly: CellTiter-Glo cytotoxicity assay, Ramos. Format: cell-based. The conditions noted are these: Ramos (Burkitt's lymphoma), 96 h. On the procedure: as §1, §2, §3
(In general: In ATP-based viability assays light output follows the ATP content of the culture.)

The next data set has as its target purified NAMPT (Homo sapiens, UniProt P43490). The conditions noted are these: read-out: FP assay (IC50); NAMPT 120 nM, fluorescent probe 30 nM, 4 hours room temp.

The text below walks through data of patent US20240293554A1, “QUATERNIZED NICOTINAMIDE ADENINE DINUCLEOTIDE SALVAGE PATHWAY INHIBITOR CONJUGATES” (priority 2017, published 2024).

In general, IC50 refers to the concentration that gives 50% inhibition.

Sequence of purified NAMPT (P43490 whole entry): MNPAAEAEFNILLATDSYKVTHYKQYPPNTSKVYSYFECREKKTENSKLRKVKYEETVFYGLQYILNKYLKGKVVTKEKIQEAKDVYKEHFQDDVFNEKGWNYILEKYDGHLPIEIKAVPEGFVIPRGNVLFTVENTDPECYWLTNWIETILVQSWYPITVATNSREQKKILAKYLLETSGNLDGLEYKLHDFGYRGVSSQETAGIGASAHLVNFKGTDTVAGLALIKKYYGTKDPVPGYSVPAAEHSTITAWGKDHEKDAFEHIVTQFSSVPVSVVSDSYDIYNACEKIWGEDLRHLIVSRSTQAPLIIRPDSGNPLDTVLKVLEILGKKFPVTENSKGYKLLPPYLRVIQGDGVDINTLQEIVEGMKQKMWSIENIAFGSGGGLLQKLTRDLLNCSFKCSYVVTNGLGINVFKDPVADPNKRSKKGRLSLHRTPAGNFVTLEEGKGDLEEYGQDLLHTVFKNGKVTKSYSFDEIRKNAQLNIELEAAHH

For `NC[C@@H](C(=O)NCCC(=O)Nc1cc(C[n+]2cccc(/C=C/C(=O)NCCCCC3CCN(C(=O)c4ccccc4)CC3)c2)ccc1O[C@@H]1O[C@H](C(=O)O)[C@@H](O)[C@H](O)[C@H]1O)N1C(=O)C=CC1=O` [Compound 5, 1-(3-(3-((S)-3-amino-2-(2,5-dioxo-2,5-dihydro-1H-pyrrol-1-yl)propanamido)propanamido)-4-(((2S, 3R, 4S, 5S, 6S)-6-carboxy-3,4,5-trihydroxy-tetrahydro-2H-pyran-2-yl)oxy)benzyl)-3-((E)-3-((4-(1-benzoylpiperidin-4-yl)butyl)amino)-3-oxoprop-1-en-1-yl)pyridin-1-ium 2,2,2-trifluoroacetate], in the data set with L540cy xenograft, the tumor growth delay entry was “varying levels of tumor growth delay” and the “tolerability (weight loss, outward signs of toxicity)” value is recorded as “well-tolerated, with no weight loss or outward signs of toxicity observed”.

Consider `NC[C@@H](C(=O)NCCC(=O)Nc1cc(C[n+]2cccc(/C=C/C(=O)NCCCCC3CCN(C(=O)c4cccc(N)c4)CC3)c2)ccc1O[C@@H]1O[C@H](C(=O)O)[C@@H](O)[C@H](O)[C@H]1O)N1C(=O)C=CC1=O` [Compound 12, 1-(3-(3-((S)-3-ammonio-2-(2,5-dioxo-2,5-dihydro-1H-pyrrol-1-yl)propanamido)propanamido)-4-(((2S,3R,4S,5S,6S)-6-carboxy-3,4,5-trihydroxytetrahydro-2H-pyran-2-yl)oxy)benzyl)-3-((E)-3-((4-(1-(3-ammoniobenzoyl)piperidin-4-yl)butyl)amino)-3-oxoprop-1-en-1-yl)pyridin-1-ium 2,2,2-trifluoroacetate], for which, in the data set on L540cy xenograft, the tumor growth delay result is “varying levels of tumor growth delay” and the “tolerability (weight loss, outward signs of toxicity)” value is listed as “well-tolerated, with no weight loss or outward signs of toxicity observed”.

Regarding `CN(CC1(CO)CCCC1)C(=O)CCCCCCCN/C(=N\C#N)Nc1cc[n+](Cc2ccc(O[C@@H]3O[C@H](C(=O)O)[C@@H](O)[C@H](O)[C@H]3O)c(NC(=O)CCNC(=O)CCN3C(=O)C=CC3=O)c2)cc1` [Compound 26, 1-(4-(((2S,3R,4S,5S,6S)-6-carboxy-3,4,5-trihydroxytetrahydro-2H-pyran-2-yl)oxy)-3-(3-(3-(2,5-dioxo-2,5-dihydro-1H-pyrrol-1-yl)propanamido)-propanamido)benzyl)-4-((E)-2-cyano-3-(8-(((1-(hydroxymethyl)cyclopentyl)methyl)-(methyl)amino)-8-oxooctyl)guanidino)pyridin-1-ium 2,2,2-trifluoroacetate], in the data set with L540cy xenograft, the tumor growth delay result is “varying levels of tumor growth delay” and the “tolerability (weight loss, outward signs of toxicity)” value is reported as “well-tolerated, with no weight loss or outward signs of toxicity observed”.

Turning to `NCCC(=O)Nc1cc(C[n+]2ccn3cc(C(=O)NCc4ccc(S(=O)(=O)c5cc(F)cc(F)c5)cc4)ccc32)ccc1O[C@@H]1O[C@H](C(=O)O)[C@@H](O)[C@H](O)[C@H]1O` [Compound 28, 1-(3-(3-ammoniopropanamido)-4-(((2S,3R,4S,5S,6S)-6-carboxy-3,4,5-trihydroxytetrahydro-2H-pyran-2-yl)oxy)benzyl)-6-((4-((3,5-difluorophenyl)-sulfonyl)benzyl)carbamoyl)imidazo[1,2-a]pyridin-1-ium 2,2,2-trifluoroacetate], the IC50 in the data set on L540cy was determined as 8.5 nM; in the data set with HepG2, 8 nM; in the data set on Ramos, 1 nM; at purified NAMPT it was 47 nM.

Turning to `CC(C)(C)OC(=O)NC[C@@H](C(=O)NCCC(=O)Nc1cc(C[n+]2ccn3cc(C(=O)NCc4ccc(S(=O)(=O)c5cc(F)cc(F)c5)cc4)ccc32)ccc1O[C@@H]1O[C@H](C(=O)O)[C@@H](O)[C@H](O)[C@H]1O)N1C(=O)C=CC1=O` [Compound 29, 1-(3-(3-((S)-3-((tert-butoxycarbonyl)amino)-2-(2,5-dioxo-2,5-dihydro-1H-pyrrol-1-yl)propanamido)propanamido)-4-(((2S,3R,4S,5S,6S)-6-carboxy-3,4,5-trihydroxytetrahydro-2H-pyran-2-yl)oxy)benzyl)-6-((4-((3,5-difluorophenyl)-sulfonyl)benzyl)carbamoyl)imidazo[1,2-a]pyridin-1-ium 2,2,2-trifluoroacetate], the IC50 with L540cy worked out at 0.78 nM; in the data set with HepG2, 1.08 nM; in the data set with Ramos it was 0.71 nM; at purified NAMPT, 36 nM.
